Key:
Format in all cases: in vivo
[1] = tested on: barnyardgrass (Echinochloa crus-galli); assay: Test A preemergence; settings: for Plant response rating, Barnyardgrass: 125 g ai/ha, preemergence, 0 to 100 scale (0 no effect, 100 complete control); for Barnyardgrass plant response rating (0 to 100 scale): Preemergence, 500 g ai/ha, 0 is no effect, 100 is complete control
Procedure, shortened: (§1)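 Treatment is preemergence as a directed soil spray after planting, or postemergence at the one- to two-leaf stage, with test chemical in a non-phytotoxic solvent mixture plus surfactant. Plants stay in the greenhouse about 10 d before visual injury scoring on a 0 to 100 scale versus untreated controls.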

[2] = tested on: corn (Zea mays); assay: Test A preemergence; settings: for Plant response rating, Corn: 125 g ai/ha, preemergence, 0 to 100 scale (0 no effect, 100 complete control); for Corn plant response rating (0 to 100 scale): Preemergence, 500 g ai/ha, 0 is no effect, 100 is complete control
Procedure, shortened: as §1

[3] = tested on: crabgrass, large (Digitaria sanguinalis); assay: Test A preemergence; settings: for Plant response rating, Crabgrass, Large: 125 g ai/ha, preemergence, 0 to 100 scale (0 no effect, 100 complete control); for Crabgrass, Large plant response rating (0 to 100 scale): Preemergence, 500 g ai/ha, 0 is no effect, 100 is complete control
Procedure, shortened: as §1

[4] = tested on: giant foxtail (Setaria faberii); assay: Test A preemergence; settings: for Plant response rating, Foxtail, Giant: 125 g ai/ha, preemergence, 0 to 100 scale (0 no effect, 100 complete control); for Foxtail, Giant plant response rating (0 to 100 scale): Preemergence, 500 g ai/ha, 0 is no effect, 100 is complete control
Procedure, shortened: as §1

[5] = tested on: morningglory (Ipomoea spp.); assay: Test A preemergence; settings: for Plant response rating, Morningglory: 125 g ai/ha, preemergence, 0 to 100 scale (0 no effect, 100 complete control); for Morningglory plant response rating (0 to 100 scale): Preemergence, 500 g ai/ha, 0 is no effect, 100 is complete control
Procedure, shortened: as §1

[6] = tested on: pigweed (Amaranthus retroflexus); assay: Test A preemergence; settings: for Plant response rating, Pigweed: 125 g ai/ha, preemergence, 0 to 100 scale (0 no effect, 100 complete control); for Pigweed plant response rating (0 to 100 scale): Preemergence, 500 g ai/ha, 0 is no effect, 100 is complete control
[7] = tested on: velvetleaf (Abutilon theophrasti); assay: Test A preemergence; settings: for Plant response rating, Velvetleaf: 125 g ai/ha, preemergence, 0 to 100 scale (0 no effect, 100 complete control); for Velvetleaf plant response rating (0 to 100 scale): Preemergence, 500 g ai/ha, 0 is no effect, 100 is complete control
Procedure, shortened: as §1

[8] = tested on: wheat (Triticum aestivum); assay: Test A preemergence; settings: for Plant response rating, Wheat: 125 g ai/ha, preemergence, 0 to 100 scale (0 no effect, 100 complete control); for Wheat plant response rating (0 to 100 scale): Preemergence, 500 g ai/ha, 0 is no effect, 100 is complete control
Procedure, shortened: as §1

[9] = tested on: barnyardgrass (Echinochloa crus-galli); assay: Test A postemergence
Procedure, shortened: as §1

[10] = tested on: corn (Zea mays); assay: Test A postemergence
Procedure, shortened: as §1

[11] = tested on: crabgrass, large (Digitaria sanguinalis); assay: Test A postemergence
Procedure, shortened: as §1

[12] = tested on: giant foxtail (Setaria faberii); assay: Test A postemergence
Procedure, shortened: as §1

[13] = tested on: morningglory (Ipomoea spp.); assay: Test A postemergence
Procedure, shortened: as §1

[14] = tested on: pigweed (Amaranthus retroflexus); assay: Test A postemergence
Procedure, shortened: as §1

[15] = tested on: velvetleaf (Abutilon theophrasti); assay: Test A postemergence
Procedure, shortened: as §1

[16] = tested on: wheat (Triticum aestivum); assay: Test A postemergence
Procedure, shortened: as §1

[17] = tested on: barnyardgrass (Echinochloa crus-galli); assay: Test B flooded paddy test; settings: Flood, 250 g ai/ha; 0 to 100 scale where 0 is no effect and 100 is complete control; 13 to 15 d
Procedure, shortened: (§2)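 Compound goes directly into floodwater once pots are flooded 3 cm above soil, targeting plants at two leaves; the water depth is then held for the test duration. Plants sit 13–15 d in a greenhouse and are rated visually, 100 denoting complete control.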

[18] = tested on: ducksalad (Heteranthera limosa); assay: Test B flooded paddy test; settings: Flood, 250 g ai/ha; 0 to 100 scale where 0 is no effect and 100 is complete control; 13 to 15 d
Procedure, shortened: as §2

[19] = tested on: rice (Oryra sativa); assay: Test B flooded paddy test; settings: Flood, 250 g ai/ha; 0 to 100 scale where 0 is no effect and 100 is complete control; 13 to 15 d
Procedure, shortened: as §2

[20] = tested on: sedge, umbrella (small-flower umbrella sedge, Cyperus difformis); assay: Test B flooded paddy test; settings: Flood, 250 g ai/ha; 0 to 100 scale where 0 is no effect and 100 is complete control; 13 to 15 d
Procedure, shortened: as §2

[21] = 500 g ai/ha, postemergence, 0 to 100 scale, 0 no effect, 100 complete control
[22] = Postemergence, 125 g ai/ha, visual injury, 0 to 100 scale (0 no effect, 100 complete control), approx. 10 d

O=C1NCC(c2cccnc2)C1C(=O)Nc1ccccc1C(F)(F)F (racemic) [Compound 352]
0: Plant response rating, Barnyardgrass [1] | Barnyardgrass plant response rating (0 to 100 scale) [1] | Plant response rating, Corn [2] | Corn plant response rating (0 to 100 scale) [2] | Plant response rating, Crabgrass, Large [3] | Crabgrass, Large plant response rating (0 to 100 scale) [3] | Plant response rating, Foxtail, Giant [4] | Foxtail, Giant plant response rating (0 to 100 scale) [4] | Plant response rating, Morningglory [5] | Morningglory plant response rating (0 to 100 scale) [5] | Plant response rating, Pigweed [6] | Pigweed plant response rating (0 to 100 scale) [6] | Plant response rating, Velvetleaf [7] | Velvetleaf plant response rating (0 to 100 scale) [7] | Plant response rating, Wheat [8] | Wheat plant response rating (0 to 100 scale) [8] | Plant response rating, Barnyardgrass [9, 21] | Plant response rating, Barnyardgrass [9, 22] | Plant response rating, Corn [10, 21] | Plant response rating, Corn [10, 22] | Plant response rating, Crabgrass, Large [11, 21] | Plant response rating, Crabgrass, Large [11, 22] | Plant response rating, Foxtail, Giant [12, 21] | Plant response rating, Foxtail, Giant [12, 22] | Plant response rating, Morningglory [13, 21] | Plant response rating, Morningglory [13, 22] | Plant response rating, Pigweed [14, 21] | Plant response rating, Pigweed [14, 22] | Plant response rating, Velvetleaf [15, 21] | Plant response rating, Velvetleaf [15, 22] | Plant response rating, Wheat [16, 21] | Plant response rating, Wheat [16, 22] | Plant response rating, Barnyardgrass [17] | Plant response rating, Ducksalad [18] | Plant response rating, Rice [19] | Plant response rating, Sedge, Umbrella [20]

O=C1NCC(c2ccc(F)c(F)c2)C1C(=O)Nc1n[nH]cc1Br (racemic) [Compound 361]
0: Plant response rating, Barnyardgrass [1] | Barnyardgrass plant response rating (0 to 100 scale) [1] | Plant response rating, Corn [2] | Corn plant response rating (0 to 100 scale) [2] | Plant response rating, Crabgrass, Large [3] | Crabgrass, Large plant response rating (0 to 100 scale) [3] | Plant response rating, Foxtail, Giant [4] | Foxtail, Giant plant response rating (0 to 100 scale) [4] | Plant response rating, Morningglory [5] | Morningglory plant response rating (0 to 100 scale) [5] | Plant response rating, Pigweed [6] | Pigweed plant response rating (0 to 100 scale) [6] | Plant response rating, Velvetleaf [7] | Velvetleaf plant response rating (0 to 100 scale) [7] | Plant response rating, Wheat [8] | Wheat plant response rating (0 to 100 scale) [8] | Plant response rating, Barnyardgrass [9, 21] | Plant response rating, Barnyardgrass [9, 22] | Plant response rating, Corn [10, 21] | Plant response rating, Corn [10, 22] | Plant response rating, Crabgrass, Large [11, 21] | Plant response rating, Crabgrass, Large [11, 22] | Plant response rating, Foxtail, Giant [12, 21] | Plant response rating, Foxtail, Giant [12, 22] | Plant response rating, Morningglory [13, 21] | Plant response rating, Morningglory [13, 22] | Plant response rating, Pigweed [14, 21] | Plant response rating, Pigweed [14, 22] | Plant response rating, Velvetleaf [15, 21] | Plant response rating, Velvetleaf [15, 22] | Plant response rating, Wheat [16, 21] | Plant response rating, Wheat [16, 22] | Plant response rating, Barnyardgrass [17] | Plant response rating, Ducksalad [18] | Plant response rating, Rice [19] | Plant response rating, Sedge, Umbrella [20]
